Experimental data from paper PMC5573151 (Clinical cancer research : an official journal of the …, 2009).

Target: HLA-A2.1 (Homo sapiens, UniProt P04439, D140Y/D185E/D98H/E176V/E277Q/G131W/G231S/I119V/I121R/I166T/I218V/L300P/L318F/N151K/N90K/P208A/P217A/Q86G/Q94H/R138H/R169H/T345S)
Test: MHC stabilization
Assay type: binding
Conditions: T2 cell assay

Row | Sequence | Binding to A2.1 (in words)
1 | SLYDSCYQI [SIM2(199)] | strongly bind
2 | KLLPLPSAI [SIM2(25)] | strongly bind
